Test results reported in paper PMC8058344, “ARIH1 signaling promotes anti-tumor immunity by targeting PD-L1 for proteasomal degradation” (Nature Communications, 2021).
pIC50: −log10 of the molar value.

Tests used:
IGF1R = IGF1R (Homo sapiens, UniProt P08069); assay: In vitro kinase specificity profiling; type: biochemical
PD-L1 Ser279 = assay: Immunoblots with phospho-specific antibody against PD-L1 Ser279; type: cell-based, human; conditions: endogenous (H1975, 2 h) and recombinant (HEK293T, 10 μM, 2 h) PD-L1
Protocol: Fig. 2 Phosphorylation on S279/S283 impairs the stability of PD-L1. a Mapping PD-L1 phosphorylation sites following ES-072 treatment. HEK293T cells were transfected with Flag-PD-L1 and treated with 10 μM ES-072 for 48 h. Immunoprecipitated PD-L1 was analyzed by mass spectrometry following phosphopeptide enrichment. Peptide ionization data corresponding to Ser279/283 are shown. b Schematic diagram of phosphorylated sites on PD-L1. Full-length PD-L1 was separated into an extracellular domain (ECD) and intracellular domain (ICD). SP: signal peptide; TM: transmembrane domain. c Schematic diagram of phosphorylated sites, S279 and S283 in the ICD of PD-L1. Positions of phosphorylated sites were labeled in red. […] Scale bars represent 50 μm. i, j Quantification of IHC analysis for p-PD-L1 (Ser279) (i) and PD-L1 (j) in h. […]
(§1) For western blot analysis, cells were collected and washed with PBS, then lysed in radioimmunoprecipitation assay (RIPA) buffer (1% Triton X-100, 100 mM Tris-HCl pH 8.8, 100 mM NaCl, 0.5 mM EDTA). […] The supernatant was collected and the protein concentration was measured by bicinchoninic acid reaction. […] Signals were detected using chemiluminescence reagents (#4AW001-500, 4A649 Biotech, Co.).

HER2 = HER2 (Homo sapiens, UniProt P04626); assay: In vitro kinase specificity profiling; type: biochemical
PD-L1 in U937 cells = assay: PD-L1 levels in U937 cells by western blotting and flow cytometry; type: cell-based, human; conditions: western blotting and flow cytometry, 10 μM, 12 h
Protocol: Fig. 1 EGFR inhibitors were screened to reduce membrane PD-L1 levels. a High-throughput screening of 2125 FDA-approved drugs or drug candidates. U937 cells were incubated with IFNγ (100 ng/mL) for 48 h, treated with the drugs at 10 μM for 12 h. Ruxolitinib (Rux) was used as a positive control. The hit compounds that induced the decrease of PD-L1 levels are shown in blue. The depth of blue represents decreased level of PD-L1. The heatmap represents the targeted pathways obtained from the high-throughput screening, based upon decreased membrane PD-L1 level detected by flow cytometry. b Immunoblotting of PD-L1 in U937 cells treated with ES-072 (ES) or AZD9291 (AZD) at indicated concentrations for 12 h. ES and AZD are EGFR inhibitors. c, d Median fluorescence intensity (MFI) (c) and relative quantification (d) of PD-L1 in U937 cells treated with 10 μM ES-072 or 10 μM AZD9291 for 12 h. Data represent means ± SEM, n = 18, 6 independent repeats, ****P < 0.0001. e–g Immunoblotting (e, f) and flow cytometry (g) analysis of PD-L1 levels in U937 cells treated with 10 μM ES-072 or 10 μM AZD9291 for the indicated times. h, i Immunoblottings (h) of PD-L1 and β-TrCP, relative quantification (i) of PD-L1 MFI in H1975 cells transfected with non-targeting siRNA (si-CTRL) or β-TrCP siRNAs (si-β-TrCP) and treated with or without 10 μM ES-072/AZD9291 for 12 h. Data represent means ± SEM, n = 9, 3 independent repeats, NS: no significant; ****P < 0.0001. j–l Immunoblotting (j) and flow cytometry analysis (k) with relative quantification (l) of PD-L1 in H1975 cells treated with 10 μM ES-072 or AZD9291, and/or 5 μM LY2090314 (LY) for 12 h. LY is a GSK3 inhibitor. […]
as §1, with “Co.). […]” for “Co.).”

HER2, sequence (P04626 23-1255, species assumed): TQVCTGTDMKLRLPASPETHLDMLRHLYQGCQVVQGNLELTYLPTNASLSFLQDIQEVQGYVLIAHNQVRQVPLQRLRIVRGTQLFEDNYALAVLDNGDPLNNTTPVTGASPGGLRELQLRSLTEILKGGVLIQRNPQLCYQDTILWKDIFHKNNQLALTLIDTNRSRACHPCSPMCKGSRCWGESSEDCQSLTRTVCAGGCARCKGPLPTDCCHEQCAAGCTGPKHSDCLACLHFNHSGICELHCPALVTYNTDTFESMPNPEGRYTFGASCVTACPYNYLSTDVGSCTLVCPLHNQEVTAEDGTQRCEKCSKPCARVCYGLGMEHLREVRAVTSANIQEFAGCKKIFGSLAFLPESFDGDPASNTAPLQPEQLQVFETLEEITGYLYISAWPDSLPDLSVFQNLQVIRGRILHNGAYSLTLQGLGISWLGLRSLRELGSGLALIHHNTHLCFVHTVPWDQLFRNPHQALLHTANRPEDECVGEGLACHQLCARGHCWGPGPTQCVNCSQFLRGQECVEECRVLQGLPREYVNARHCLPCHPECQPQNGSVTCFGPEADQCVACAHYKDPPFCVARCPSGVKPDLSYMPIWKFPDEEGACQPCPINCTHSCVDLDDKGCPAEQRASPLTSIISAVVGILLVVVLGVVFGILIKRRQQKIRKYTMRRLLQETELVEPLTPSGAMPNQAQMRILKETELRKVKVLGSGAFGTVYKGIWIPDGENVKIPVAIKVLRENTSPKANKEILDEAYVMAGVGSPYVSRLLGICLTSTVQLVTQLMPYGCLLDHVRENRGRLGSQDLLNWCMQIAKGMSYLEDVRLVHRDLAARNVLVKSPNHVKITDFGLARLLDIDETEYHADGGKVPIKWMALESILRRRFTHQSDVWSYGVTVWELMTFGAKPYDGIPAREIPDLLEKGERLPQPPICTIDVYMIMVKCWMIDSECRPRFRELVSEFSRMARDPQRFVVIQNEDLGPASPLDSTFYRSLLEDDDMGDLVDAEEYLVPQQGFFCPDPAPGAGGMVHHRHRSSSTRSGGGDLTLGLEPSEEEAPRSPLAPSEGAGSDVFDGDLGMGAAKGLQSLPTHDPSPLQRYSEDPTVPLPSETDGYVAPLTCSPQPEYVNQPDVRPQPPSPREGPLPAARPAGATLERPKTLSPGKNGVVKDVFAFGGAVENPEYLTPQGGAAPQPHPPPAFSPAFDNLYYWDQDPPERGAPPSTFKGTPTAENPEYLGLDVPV
IGF1R, sequence (P08069 31-1367, species assumed): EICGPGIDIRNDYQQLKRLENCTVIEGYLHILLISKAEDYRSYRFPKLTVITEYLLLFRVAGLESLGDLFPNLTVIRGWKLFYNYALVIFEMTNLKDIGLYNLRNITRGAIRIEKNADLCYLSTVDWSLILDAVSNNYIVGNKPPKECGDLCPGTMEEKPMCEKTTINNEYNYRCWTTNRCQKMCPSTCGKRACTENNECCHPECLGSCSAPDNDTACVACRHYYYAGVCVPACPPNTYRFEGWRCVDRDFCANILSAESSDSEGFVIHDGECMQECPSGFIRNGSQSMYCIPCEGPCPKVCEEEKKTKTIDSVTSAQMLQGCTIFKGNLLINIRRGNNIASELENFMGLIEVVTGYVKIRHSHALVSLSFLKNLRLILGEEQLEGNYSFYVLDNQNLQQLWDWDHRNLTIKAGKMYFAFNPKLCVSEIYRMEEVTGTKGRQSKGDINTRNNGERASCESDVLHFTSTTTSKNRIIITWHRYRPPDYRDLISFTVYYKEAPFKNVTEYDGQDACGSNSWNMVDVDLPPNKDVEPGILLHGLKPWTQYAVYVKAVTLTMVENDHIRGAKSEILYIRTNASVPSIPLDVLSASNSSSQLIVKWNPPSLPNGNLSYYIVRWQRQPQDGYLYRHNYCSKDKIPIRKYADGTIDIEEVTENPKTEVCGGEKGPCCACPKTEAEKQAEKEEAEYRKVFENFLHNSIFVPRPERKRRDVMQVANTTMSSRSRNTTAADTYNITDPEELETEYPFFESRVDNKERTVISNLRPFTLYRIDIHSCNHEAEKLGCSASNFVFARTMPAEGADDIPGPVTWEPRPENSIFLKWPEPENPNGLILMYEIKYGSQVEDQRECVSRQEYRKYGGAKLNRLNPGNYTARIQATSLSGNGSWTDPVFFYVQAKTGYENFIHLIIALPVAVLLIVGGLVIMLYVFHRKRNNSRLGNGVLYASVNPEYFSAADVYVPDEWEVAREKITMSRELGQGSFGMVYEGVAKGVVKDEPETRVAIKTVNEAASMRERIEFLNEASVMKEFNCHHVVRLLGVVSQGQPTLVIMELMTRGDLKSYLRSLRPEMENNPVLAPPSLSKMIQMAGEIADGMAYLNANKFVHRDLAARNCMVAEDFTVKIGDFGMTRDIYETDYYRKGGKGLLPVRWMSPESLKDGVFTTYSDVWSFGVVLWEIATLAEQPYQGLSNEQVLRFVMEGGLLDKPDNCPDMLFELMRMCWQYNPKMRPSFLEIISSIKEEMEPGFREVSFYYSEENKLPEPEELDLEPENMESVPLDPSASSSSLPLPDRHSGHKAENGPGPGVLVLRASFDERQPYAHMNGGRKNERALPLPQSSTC

`C=CC(=O)Nc1cccc(Nc2nc(Nc3ccc(N4CCN(C)CC4)nc3OC)ncc2C(F)(F)F)c1` [ES-072] was tested, and the pIC50 (IGF1R) was 6.90, the “phosphorylation of PD-L1 at Ser279” value (PD-L1 Ser279) was “robust phosphorylation” and the pIC50 (HER2) was 6.83. The “IFNγ-induced membranal PD-L1 levels” value (PD-L1 in U937 cells) was “dramatically reduced”.
